# Data taken from patent US20160002204A1 (Board of Regents, The University of Texas System, priority 2014, published 2016).
# How the values were obtained:
# [1] = target: T1, GLS1 (purified recombinant human GAC) (Homo sapiens, UniProt O94925); assay: GLS1 enzymatic activity assay (dual-coupled, Amplex UltraRed/resorufin); format: biochemical
# T1 sequence (O94925 55-598 isoform O94925-3 limits assumed): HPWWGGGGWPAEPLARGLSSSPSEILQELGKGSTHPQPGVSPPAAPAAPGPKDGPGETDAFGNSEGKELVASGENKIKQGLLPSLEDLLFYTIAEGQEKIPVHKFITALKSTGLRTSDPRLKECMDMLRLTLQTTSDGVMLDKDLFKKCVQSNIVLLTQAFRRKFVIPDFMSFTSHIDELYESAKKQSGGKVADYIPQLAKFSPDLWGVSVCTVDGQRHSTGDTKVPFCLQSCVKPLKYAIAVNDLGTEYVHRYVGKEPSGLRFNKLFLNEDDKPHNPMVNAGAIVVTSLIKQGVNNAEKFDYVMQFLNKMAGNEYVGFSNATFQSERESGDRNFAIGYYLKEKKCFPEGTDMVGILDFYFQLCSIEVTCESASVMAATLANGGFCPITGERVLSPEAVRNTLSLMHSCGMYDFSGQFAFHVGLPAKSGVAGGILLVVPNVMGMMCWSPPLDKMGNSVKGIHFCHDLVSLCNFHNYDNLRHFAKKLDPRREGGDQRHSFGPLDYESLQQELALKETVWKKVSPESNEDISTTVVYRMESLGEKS
# Procedure, shortened: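 In this coupled fluorometric format, phosphate-activated GAC (2 nM, 50 mM phosphate) is pre-exposed to compound for 10 min before 1 mM glutamine addition. Product is tracked as resorufin (530/590 nm) over time or at 20 min, and potency is derived by logistic fitting.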
# A549 cells = assay: A549 proliferation (viability) assay, Cell Titer Fluor, 72 hours; format: cell-based; conditions: Homo sapiens
# Procedure, shortened: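 A549 cells seeded at 1000 cells/well, left 24 h, then exposed to compound for 72 h at 37 °C, 5% CO2, final DMSO 0.5% (v/v). Viability read by Cell Titer Fluor fluorescence; EC50 from four-parameter logistic fit.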
IC50 [1] [nM],EC50 (A549 cells) [nM],Structure (SMILES)
< 100,< 100,"CC(C)(C)OC(=O)N[C@@H]1CCC[C@@H](C(=O)Nc2ccn(CCC(F)Cn3cc(C(=O)NCc4cccc(OC(F)(F)F)c4)nn3)c(=O)c2)C1 (stereo partly drawn) [Example 249, tert-butyl N-[(1R,3R)-3-[(1-{3-fluoro-4-[4-({[3-(trifluoromethoxy)phenyl]methyl}carbamoyl)-1H-1,2,3-triazol-1-yl]butyl}-2-oxo-1,2-dihydropyridin-4-yl)carbamoyl]cyclohexyl]carbamate]"
< 100,100 to 500,"O=C(Cc1ccccn1)Nc1ccn(CCC(F)Cn2cc(C(=O)NCc3cccc(OC(F)(F)F)c3)nn2)c(=O)c1 (stereo not shown) [Example 250, 1-(2-fluoro-4-{2-oxo-4-[2-(pyridin-2-yl)acetamido]-1,2-dihydropyridin-1-yl}butyl)-N-{[3-(trifluoromethoxy)phenyl]methyl}-1H-1,2,3-triazole-4-carboxamide]"
< 100,100 to 500,"COc1cccc(CC(=O)Nc2ccn(CCC(F)Cn3cc(C(=O)NCc4cccc(OC(F)(F)F)c4)nn3)c(=O)c2)n1 (stereo not shown) [Example 251, 1-(2-fluoro-4-{4-[2-(6-methoxypyridin-2-yl)acetamido]-2-oxo-1,2-dihydropyridin-1-yl}butyl)-N-{[3-(trifluoromethoxy)phenyl]methyl}-1H-1,2,3-triazole-4-carboxamide]"
< 100,100 to 500,"O=C(Cc1nccs1)Nc1ccn(CCC(F)Cn2cc(C(=O)NCc3cccc(OC(F)(F)F)c3)nn2)c(=O)c1 (stereo not shown) [Example 252, 1-(2-fluoro-4-{2-oxo-4-[2-(1,3-thiazol-2-yl)acetamido]-1,2-dihydropyridin-1-yl}butyl)-N-{[3-(trifluoromethoxy)phenyl]methyl}-1H-1,2,3-triazole-4-carboxamide]"
< 100,500 to 5000,"O=C(Cc1ccc2ccccc2n1)Nc1ccn(CCC(F)Cn2cc(C(=O)NCc3cccc(OC(F)(F)F)c3)nn2)c(=O)c1 (stereo not shown) [Example 253, 1-(2-fluoro-4-{2-oxo-4-[2-(quinolin-2-yl)acetamido]-1,2-dihydropyridin-1-yl}butyl)-N-{[3-(trifluoromethoxy)phenyl]methyl}-1H-1,2,3-triazole-4-carboxamide]"
< 100,< 100,"CCOC(=O)N1CCN(CC(=O)Nc2ccn(CCC(F)Cn3cc(C(=O)NCc4cccc(OC(F)(F)F)c4)nn3)c(=O)c2)CC1 (stereo not shown) [Example 255, ethyl 4-{[(1-{3-fluoro-4-[4-({[3-(trifluoromethoxy)phenyl]methyl}carbamoyl)-1H-1,2,3-triazol-1-yl]butyl}-2-oxo-1,2-dihydropyridin-4-yl)carbamoyl]methyl}piperazine-1-carboxylate]"
< 100,500 to 5000,"N#CC1CCN(CC(=O)Nc2ccn(CCC(F)Cn3cc(C(=O)NCc4cccc(OC(F)(F)F)c4)nn3)c(=O)c2)CC1 (stereo not shown) [Example 256, 1-(4-{4-[2-(4-cyanopiperidin-1-yl)acetamido]-2-oxo-1,2-dihydropyridin-1-yl}-2-fluorobutyl)-N-{[3-(trifluoromethoxy)phenyl]methyl}-1H-1,2,3-triazole-4-carboxamide]"
< 100,500 to 5000,"O=C(CN1CCCC(CO)C1)Nc1ccn(CCC(F)Cn2cc(C(=O)NCc3cccc(OC(F)(F)F)c3)nn2)c(=O)c1 (stereo not shown) [Example 257, 1-[2-fluoro-4-(4-{2-[3-(hydroxymethyl)piperidin-1-yl]acetamido}-2-oxo-1,2-dihydropyridin-1-yl)butyl]-N-{[3-(trifluoromethoxy)phenyl]methyl}-1H-1,2,3-triazole-4-carboxamide]"
< 100,< 100,"O=C(CC1CCCCC1)Nc1ccn(CCC(F)Cn2cc(C(=O)NCc3cc(C(F)(F)F)ccn3)nn2)c(=O)c1F (stereo not shown) [Example 258, 1-{4-[4-(2-cyclohexylacetamido)-3-fluoro-2-oxo-1,2-dihydropyridin-1-yl]-2-fluorobutyl}-N-{[4-(trifluoromethyl)pyridin-2-yl]methyl}-1H-1,2,3-triazole-4-carboxamide]"
< 100,< 100,"O=C(CC1CCCCC1)Nc1ccn(CCC(F)Cn2cc(C(=O)NCc3cncc(C(F)(F)F)c3)nn2)c(=O)c1F (stereo not shown) [Example 259, 1-{4-[4-(2-cyclohexylacetamido)-3-fluoro-2-oxo-1,2-dihydropyridin-1-yl]-2-fluorobutyl}-N-{[5-(trifluoromethyl)pyridin-3-yl]methyl}-1H-1,2,3-triazole-4-carboxamide]"
< 100,< 100,"O=C(CC1CCCCC1)Nc1ccn(CCC(F)Cn2cc(C(=O)NCc3ccc(C(F)(F)F)nc3)nn2)c(=O)c1F (stereo not shown) [Example 260, 1-{4-[4-(2-cyclohexylacetamido)-3-fluoro-2-oxo-1,2-dihydropyridin-1-yl]-2-fluorobutyl}-N-{[6-(trifluoromethyl)pyridin-3-yl]methyl}-1H-1,2,3-triazole-4-carboxamide]"
< 100,< 100,"O=C(CC1CCCCC1)Nc1ccn(CCC(F)Cn2cc(C(=O)NCc3ccc(C(F)(F)F)cn3)nn2)c(=O)c1F (stereo not shown) [Example 261, 1-{4-[4-(2-cyclohexylacetamido)-3-fluoro-2-oxo-1,2-dihydropyridin-1-yl]-2-fluorobutyl}-N-{[5-(trifluoromethyl)pyridin-2-yl]methyl}-1H-1,2,3-triazole-4-carboxamide]"
< 100,< 100,"O=C(CC1CCCCC1)Nc1ccn(CCC(F)Cn2cc(C(=O)NCc3cccc(C(F)(F)F)n3)nn2)c(=O)c1F (stereo not shown) [Example 262, 1-{4-[4-(2-cyclohexylacetamido)-3-fluoro-2-oxo-1,2-dihydropyridin-1-yl]-2-fluorobutyl}-N-{[6-(trifluoromethyl)pyridin-2-yl]methyl}-1H-1,2,3-triazole-4-carboxamide]"
< 100,100 to 500,"O=C(Cc1ccccc1)Nc1cnn(CCC(F)Cn2cc(C(=O)NCc3cccc(OC(F)(F)F)c3)nn2)c(=O)c1 (stereo not shown) [Example 263, 1-{2-fluoro-4-[6-oxo-4-(2-phenylacetamido)-1,6-dihydropyridazin-1-yl]butyl}-N-{[3-(trifluoromethoxy)phenyl]methyl}-1H-1,2,3-triazole-4-carboxamide]"
< 100,< 100,"O=C(CC1CCCCC1)Nc1ccn(CCC(F)Cn2cc(C(=O)NCc3cccc(C(F)(F)F)c3)nn2)c(=O)c1F (stereo not shown) [Example 264, 1-{4-[4-(2-cyclohexylacetamido)-3-fluoro-2-oxo-1,2-dihydropyridin-1-yl]-2-fluorobutyl}-N-{[3-(trifluoromethyl)phenyl]methyl}-1H-1,2,3-triazole-4-carboxamide]"
< 100,< 100,"O=C(CC1CCCCC1)Nc1ccn(CCC(F)Cn2cc(C(=O)NCc3cc(Cl)ccc3F)nn2)c(=O)c1F (stereo not shown) [Example 265, N-[(5-chloro-2-fluorophenyl)methyl]-1-{4-[4-(2-cyclohexylacetamido)-3-fluoro-2-oxo-1,2-dihydropyridin-1-yl]-2-fluorobutyl}-1H-1,2,3-triazole-4-carboxamide]"
< 100,< 100,"Cc1ccc(CNC(=O)c2cn(CC(F)CCn3ccc(NC(=O)CC4CCCCC4)c(F)c3=O)nn2)cn1 (stereo not shown) [Example 266, 1-{4-[4-(2-cyclohexylacetamido)-3-fluoro-2-oxo-1,2-dihydropyridin-1-yl]-2-fluorobutyl}-N-[(6-methylpyridin-3-yl)methyl]-1H-1,2,3-triazole-4-carboxamide]"
